From patent US9951057B2, “COMT inhibiting methods and compositions” (Lieber Institute for Brain Development, priority 2015, dated 2018)

Target: T1, catechol-O-methyltransferase (COMT) (Homo sapiens, UniProt P21964)
T1 construct: M51A variant) was expressed in HEK 293F cells
T1 sequence (P21964 52-271 limits assumed): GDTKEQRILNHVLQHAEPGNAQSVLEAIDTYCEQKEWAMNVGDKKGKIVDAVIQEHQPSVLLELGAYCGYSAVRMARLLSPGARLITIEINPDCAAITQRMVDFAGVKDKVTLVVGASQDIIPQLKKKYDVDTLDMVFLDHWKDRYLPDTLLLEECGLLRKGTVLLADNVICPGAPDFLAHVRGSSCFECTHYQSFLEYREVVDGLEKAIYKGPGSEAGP
Assay: COMT inhibition assay (HTRF, production of SAH from SAM)
Type: biochemical
Details: recombinant human COMT, table does not say whether MB-COMT or S-COMT
Method: The ability of compounds to inhibit the activity of catechol-O-methyltransferase (COMT) was determined by a homogenous time-resolved fluorescent (HTRF) assay (Lina et al, 2012; kit from CisBio, Codolet, France). This assay measures the production of S-adenosyl homocysteine (SAH) from the methyl donor S-adenosyl methionine. Recombinant human membrane bound COMT (MB-COMT; M51A variant) was expressed in HEK 293F cells using 293Fectin (Life Technologies, Gent, Belgium) and membranes prepared. The membranes were re-suspended in buffer (20 mM Tris/HCl pH 7; 10 mM glycerol; 2 mM MgCl2; 10 mM NaCl), aliquoted and stored at −80° C. Recombinant human soluble COMT (S-COMT), Val158 variant and a hexa-His tag on the N-terminus, was purified using Ni-NTA chromatography, the His tag removed and stored in buffer as above.
For the human MB-COMT assay, membranes (62 ng/well) were incubated with SAM (20 μM final, CisBio) and dopamine (1.5 μM final; Sigma H8502, Diegem, Belgium) in the presence or absence of varying concentrations (typically 10 concentrations ranging from 10 μM to 0.1 nM) of compound for 40 min at 37° C. in 384-well microtitre plates (10 μl per well final volume). The reaction was terminated by the addition of acylation buffer and the amount of SAH produced determined according to manufacturer's instructions. Specific inhibition as that inhibited by a high concentration of tolcapone (10 μM; synthesised at UCB) and all experiments were validated using a control curve to tolcapone.
The human S-COMT assay was performed as above except that 0.15 ng enzyme/well was incubated with SAM (20 μM final) and dopamine (100 μM final) for 15 min at 37° C. and SAH production determined.
HTRF readings were performed using a Perkin Elmer Envision and results expressed as concentration of SAH produced using a standard curve. Results were analysed using non-linear regression to the 4-parameter logistic equation and pIC50 (−log 10 concentration of drug which inhibits enzyme activity/SAH production by 50%) determined.

Compound | Activity range (pIC50)
CC(C)CS(=O)(=O)c1ccc(O)c2ncccc12 [Example 1, 5-isobutylsulfonylquinolin-8-ol] | +++ (three plus signs (+++) is associated with a pIC50 of above about 7)
CCCCCCCCS(=O)(=O)c1ccc(O)c2ncccc12 [Example 2, 5-octylsulfonylquinolin-8-ol] | +++ (three plus signs (+++) is associated with a pIC50 of above about 7)
O=S(=O)(c1ccc(O)c2ncccc12)C1CCOCC1 [Example 3, 5-tetrahydropyran-4-ylsulfonyquinolin-8-ol] | ++ (two plus signs (++) is associated with a pIC50 of from about great than 6 to 7)
C[C@@H]1CCCN1S(=O)(=O)c1ccc(O)c2ncccc12 [Example 5, 5-[(2R)-2-methylpyrrolidin-1-yl]sulfonylquinolin-8-ol] | +++ (three plus signs (+++) is associated with a pIC50 of above about 7)
C[C@H]1CCCN1S(=O)(=O)c1ccc(O)c2ncccc12 [Example 6] | +++ (three plus signs (+++) is associated with a pIC50 of above about 7)
O=S(=O)(c1cc(Cl)c(O)c2ncccc12)N1CCCC1 [Example 7, 7-chloro-5-pyrrolidin-1-ylsulfonyl-quinolin-8-ol] | ++ (two plus signs (++) is associated with a pIC50 of from about great than 6 to 7)
O=S(=O)(c1cc(Cl)c(O)c2ncccc12)C1CCCC1 [Example 8, 7-chloro-5-cyclopentylsulfonyl-quinolin-8-ol] | ++ (two plus signs (++) is associated with a pIC50 of from about great than 6 to 7)
O=S(=O)(c1ccc(F)cc1)c1cc(Cl)c(O)c2ncccc12 [Example 9, 7-chloro-5-(4-fluorophenyl)sulfonyl-quinolin-8-ol] | ++ (two plus signs (++) is associated with a pIC50 of from about great than 6 to 7)
O=S(=O)(c1cc(F)c(O)c2ncccc12)C1CCCC1 [Example 10, 7-fluoro-5-cyclopentylsulfonyl-quinolin-8-ol] | +++ (three plus signs (+++) is associated with a pIC50 of above about 7)
CC(C)CS(=O)(=O)c1cc(Cl)c(O)c2ncccc12 [Example 11, 7-chloro-5-isobutylsulfonyl-quinolin-8-ol] | + (a single plus (+) is associated with a pIC50 of from about 4.5 to 6)
CC(C)S(=O)(=O)c1cc(Cl)c(O)c2ncccc12 [Example 12, 7-chloro-5-isopropylsulfonyl-quinolin-8-ol] | ++ (two plus signs (++) is associated with a pIC50 of from about great than 6 to 7)
O=S(=O)(c1cc(Cl)c(O)c2ncccc12)C1CCCCC1 [Example 13, 7-chloro-5-cyclohexylsulfonyl-quinolin-8-ol] | +++ (three plus signs (+++) is associated with a pIC50 of above about 7)
O=S(=O)(c1ccc(F)cc1)c1cc(F)c(O)c2ncccc12 [Example 14, 7-fluoro-5-(4-fluorophenyl)sulfonyl-quinolin-8-ol] | ++ (two plus signs (++) is associated with a pIC50 of from about great than 6 to 7)
O=S(=O)(c1ccc(C(F)(F)F)cc1)c1cc(F)c(O)c2ncccc12 [Example 15, 7-fluoro-5-[4-(trifluoromethyl)phenyl]sulfonyl-quinolin-8-ol] | ++ (two plus signs (++) is associated with a pIC50 of from about great than 6 to 7)
O=S(=O)(c1ccccn1)c1cc(F)c(O)c2ncccc12 [Example 16, 7-fluoro-5-(2-pyridylsulfonyl)quinolin-8-ol] | ++ (two plus signs (++) is associated with a pIC50 of from about great than 6 to 7)
Cc1ccc(S(=O)(=O)c2cc(Cl)c(O)c3ncccc23)cc1C [Example 17, 7-chloro-5-(3,4-dimethylphenyl)sulfonyl-quinolin-8-ol] | ++ (two plus signs (++) is associated with a pIC50 of from about great than 6 to 7)
O=S(=O)(c1ccc(C(F)(F)F)cc1)c1cc(Cl)c(O)c2ncccc12 [Example 18, 7-chloro-5-[4-(trifluoromethyl)phenyl]sulfonyl-quinolin-8-ol] | ++ (two plus signs (++) is associated with a pIC50 of from about great than 6 to 7)
O=S(=O)(c1ccccn1)c1cc(Cl)c(O)c2ncccc12 [Example 19, 7-chloro-5-(2-pyridylsulfonyl)quinolin-8-ol] | ++ (two plus signs (++) is associated with a pIC50 of from about great than 6 to 7)
Cc1ccc(S(=O)(=O)c2cc(Cl)c(O)c3ncccc23)c(C)c1 [Example 20, 7-chloro-5-(2,4-dimethylphenyl)sulfonyl-quinolin-8-ol] | +++ (three plus signs (+++) is associated with a pIC50 of above about 7)
O=S(=O)(c1cc(Cl)cc(Cl)c1)c1cc(Cl)c(O)c2ncccc12 [Example 21, 7-chloro-5-(3,5-dichlorophenyl)sulfonyl-quinolin-8-ol] | + (a single plus (+) is associated with a pIC50 of from about 4.5 to 6)
O=S(=O)(c1nccs1)c1cc(Cl)c(O)c2ncccc12 [Example 22, 7-chloro-5-thiazol-2-ylsulfonyl-quinolin-8-ol] | ++ (two plus signs (++) is associated with a pIC50 of from about great than 6 to 7)
Cc1cccc(S(=O)(=O)c2cc(Cl)c(O)c3ncccc23)c1 [Example 23, 7-chloro-5-(m-tolylsulfonyl)quinolin-8-ol] | ++ (two plus signs (++) is associated with a pIC50 of from about great than 6 to 7)
O=S(=O)(c1ccc(Cl)c(Cl)c1)c1cc(Cl)c(O)c2ncccc12 [Example 24, 7-chloro-5-(3,4-dichlorophenyl)sulfonyl-quinolin-8-ol] | ++ (two plus signs (++) is associated with a pIC50 of from about great than 6 to 7)
O=S(=O)(c1cccc(-c2ccccc2)c1)c1cc(Cl)c(O)c2ncccc12 [Example 25, 7-chloro-5-(3-phenylphenyl)sulfonyl-quinolin-8-ol] | ++ (two plus signs (++) is associated with a pIC50 of from about great than 6 to 7)
CC(C)(C)c1ccc(S(=O)(=O)c2cc(Cl)c(O)c3ncccc23)cc1 [Example 26, 5-(4-tert-butylphenyl)sulfonyl-7-chloro-quinolin-8-ol] | + (a single plus (+) is associated with a pIC50 of from about 4.5 to 6)
O=S(=O)(c1cccnc1)c1cc(Cl)c(O)c2ncccc12 [Example 27, 7-chloro-5-(3-pyridylsulfonyl)quinolin-8-ol] | + (a single plus (+) is associated with a pIC50 of from about 4.5 to 6)
O=S(=O)(c1ccc[n+]([O-])c1)c1cc(Cl)c(O)c2ncccc12 [Example 28, 7-chloro-5-(1-oxidopyridin-1-ium-3-yl)sulfonyl-quinolin-8-ol] | + (a single plus (+) is associated with a pIC50 of from about 4.5 to 6)

Test system: not given
Assay: not given
Details: Nutt and Fellman 1984; cited from earlier work

Compound | percentage of exogenously administered L-DOPA that reaches the brain [%]
N[C@@H](Cc1ccc(O)c(O)c1)C(=O)O [L-DOPA, L-dihydroxyphenylalanine] | ~1

Test system: not given
Assay: not given
Details: Russ, et al. 1999; cited from earlier work

Compound | brain penetration / levels in the brain
CCN(CC)C(=O)/C(C#N)=C/c1cc(O)c(O)c([N+](=O)[O-])c1 [entacapone] | negligible brain penetration
